In this experiment the test system is Vasopressin V2. Description: Vasopressin V2 agonist effects of test compounds in normal conscious water-loaded rats. Type of experiment: in vivo. As to conditions: Sprague-Dawley (CD) rats, oral 10 mg/kg, urine collected for four hours; for Osmolality (% Increase): change in osmolality as percent of control; for Urine Volume (% decrease): vs. control. The protocol: Vasopressin V2 Agonist Effects of Test Compounds in Normal Conscious Water-Loaded Rats:
On the day of test, rats were placed individually into metabolic cages equipped with devices to separate the feces from the urine and containers for collection of urine. Test compound or reference agent was given at an oral dose of 10 mg/kg in a volume of 10 ml /kg. […] Thirty minutes after dosing the test compound, rats were gavaged with water at 30 ml /kg into the stomach using a feeding needle. During the test, rats were not provided with water or food. Urine was collected for four hours after dosing of the test compound. At the end of four hours, urine volume was measured. […] Determinations of Na^+, K^+ and Cl^- ion were carried out using ion specific electrodes in a Beckman SYNCHRON EL-ISE Electrolyte System analyzer. […] In the screening test, two rats were used for each compound. If the difference in the urine volume of the two rats was greater than 50%, a third rat was used.

With `Cc1cnn(-c2ccc(C(=O)N3Cc4cccn4Cc4ccccc43)c(C(F)(F)F)c2)c1` [Example 3, [4-(4-Methyl-pyrazol-1-yl)-2-trifluoromethyl-phenyl]-(5H,11H-pyrrolo[2,1-c][1,4]benzodiazepin-10-yl)-methanone], the “Osmolality (% Increase)” value was 240% and the “Urine Volume (% decrease)” value was determined as 58%.

For the molecule `O=C(c1ccc(-n2cccn2)cc1C(F)(F)F)N1Cc2cccn2Cc2ccccc21` [Example 4, (4-Pyrazol-1-yl-2-trifluoromethyl-phenyl)-(5H,11H-pyrrolo[2,1-c][1,4]benzodiazepin-10-yl)-methanone], the “Osmolality (% Increase)” value is given as 225% and the “Urine Volume (% decrease)” value is reported as 57%.

For `O=C(c1ccc(-n2ccc(C3CC3)n2)cc1C(F)(F)F)N1Cc2cccn2Cc2ccccc21` [Example 5, [4-(3-Cyclopropyl-pyrazol-1-yl)-2-trifluoromethy-phenyl]-(5H,11H-pyrrolo[2,1-c][1,4]benzodiazepin-10-yl)-methanone], the “Osmolality (% Increase)” value worked out at 231% and the “Urine Volume (% decrease)” value amounted to 56%.

As to `Cc1cn(-c2ccc(C(=O)N3Cc4cccn4Cc4ccccc43)c(C(F)(F)F)c2)cn1` [Example 6, [4-(4-Methyl-imidazol-1-yl)-2-trifluoromethyl-phenyl]-(5H,11H-pyrrolo[2,1-c][1,4]benzodiazepin-10-yl)-methanone], the “Osmolality (% Increase)” value came to 270% and the “Urine Volume (% decrease)” value worked out at 58%.

With `O=C(c1ccc(-n2cncn2)cc1C(F)(F)F)N1Cc2cccn2Cc2ccccc21` [Example 7, (5H,11H-Pyrrolo[2,1-c][1,4]benzodiazepin-10-yl)-(4-[1,2,4]triazol-1-yl-2-trifluoromethylphenyl)-methanone], the “Osmolality (% Increase)” value amounted to 137% and the “Urine Volume (% decrease)” value was determined as 13%.

Turning to `Cc1ccn(-c2ccc(C(=O)N3Cc4cccn4Cc4ccccc43)c(Cl)c2)n1` [Example 9A], the “Osmolality (% Increase)” value is reported as 325% and the “Urine Volume (% decrease)” value amounted to 70%.

As for `Cc1ccnn1-c1ccc(C(=O)N2Cc3cccn3Cc3ccccc32)c(Cl)c1` [Example 9B], the “Osmolality (% Increase)” value was determined as 168% and the “Urine Volume (% decrease)” value was 21%.

For `Cc1cnn(-c2ccc(C(=O)N3Cc4cccn4Cc4ccccc43)c(Cl)c2)c1` [Example 11], the “Osmolality (% Increase)” value amounted to 285% and the “Urine Volume (% decrease)” value turned out to be 70%.

For the molecule `Cc1cn(-c2ccc(C(=O)N3Cc4cccn4Cc4ccccc43)c(Cl)c2)cn1` [Example 12, [2-Chloro-4-(4-methyl-imidazol-1-yl)-phenyl]-(5H,11H-pyrrolo[2,1-c][1,4]benzodiazepin-10-yl)-methanone], the “Osmolality (% Increase)” value worked out at 330% and the “Urine Volume (% decrease)” value is reported as 69%.

In the case of `O=C(c1ccc(-n2ccc(C(F)(F)F)n2)cc1Cl)N1Cc2cccn2Cc2ccccc21` [Example 13, [2-Chloro-4-(3-trifluoromethyl-pyrazol-1-yl)-phenyl]-(5H,11H-pyrrolo[2,1-c][1,4]benzodiazepin-10-yl)-methanone], the “Osmolality (% Increase)” value is listed as 229% and the “Urine Volume (% decrease)” value turned out to be 50%.

Turning to `O=C(c1ccc(-n2cncn2)cc1Cl)N1Cc2cccn2Cc2ccccc21` [Example 14, [2-Chloro-4-(1,2,4-triazol-1-yl)-phenyl]-(5H,11H-pyrrolo[2,1-c][1,4]benzodiazepin-10-yl)-methanone], the “Osmolality (% Increase)” value stood at 406% and the “Urine Volume (% decrease)” value came out at 86%.

Consider `O=C(c1ccc(-n2cccc2)cc1Cl)N1Cc2cccn2Cc2ccccc21` [Example 15, (2-Chloro-4-pyrrol-1-yl-phenyl)-(5H,11H-pyrrolo[2,1-c][1,4]benzodiazepin-10-yl)-methanone], for which the “Osmolality (% Increase)” value worked out at 38% and the “Urine Volume (% decrease)” value is recorded as 47%.

For `O=C(c1ccc(-n2cccn2)cc1Cl)N1Cc2cccn2Cc2ccccc21` [Example 16, (2-Chloro-4-pyrazol-1-yl-phenyl)(5H,11H-Pyrrolo[2,1-c][1,4]benzodiazepin-10-yl)-methanone], the “Osmolality (% Increase)” value came out at 400% and the “Urine Volume (% decrease)” value is given as 88%.

Take `Cc1ccn(-c2ccc(C(=O)N3Cc4ccc(C)n4Cc4ccccc43)c(Cl)c2)n1` [Example 18, [2-Chloro-4-(3-methylpyrazol-1-yl)-phenyl]-(3-methyl-5H,11H-pyrrolo[2,1-c][1,4]benzodiazepin-10-yl)-methanone]: the “Osmolality (% Increase)” value worked out at 214% and the “Urine Volume (% decrease)” value stood at 52%.

As to `Cc1cnn(-c2ncc(C(=O)N3Cc4cccn4Cc4ccccc43)c(C(F)(F)F)n2)c1` [Example 21, [2-(4-Methyl-pyrazol-1-yl)-4-trifluoromethyl-pyrimidin-5-yl]-(5H,11H-pyrrolo[2,1-c][1,4]benzodiazepin-10-yl)-methanone], the “Osmolality (% Increase)” value amounted to 181% and the “Urine Volume (% decrease)” value amounted to 49%.

Take `CC(=O)c1ccc(C(=O)N2Cc3cccn3Cc3ccccc32)cc1` [Example 22, 1-[4-(5H,11H-Pyrrolo[2,1-c][1,4]benzodiazepine-10-carbonyl)-phenyl]-ethanone]: the “Osmolality (% Increase)” value is on record as 322% and the “Urine Volume (% decrease)” value is given as 80%.

As to `O=C(c1ccc(-c2cc[nH]n2)cc1)N1Cc2cccn2Cc2ccccc21` [Example 24, [4-(1H-Pyrazol-3-yl)-phenyl]-(5H,11H-pyrrolo[2,1-c][1,4]benzodiazepin-10-yl)-methanone], the “Osmolality (% Increase)” value was 159% and the “Urine Volume (% decrease)” value is 47%.

In the case of `Cn1ccc(-c2ccc(C(=O)N3Cc4cccn4Cc4ccccc43)cc2)n1` [Example 25, [4-(1-Methyl-1H-pyrazolyl-3-yl)-phenyl]-(5H,11H-pyrrolo[2,1-c][1,4]-benzodiazepin-10-yl)-methanone], the “Osmolality (% Increase)” value came out at 979% and the “Urine Volume (% decrease)” value came to 87%.

For the molecule `CCn1ccc(-c2ccc(C(=O)N3Cc4cccn4Cc4ccccc43)cc2)n1` [Example 26, [4-(1-Ethyl-1H-pyrazol-3-yl)-phenyl]-(5H,11H-pyrrolo[2,1-c][1,4]-benzodiazepin-10-yl)-methanone], the “Osmolality (% Increase)” value was 279% and the “Urine Volume (% decrease)” value is given as 54%.

Take `CCCn1ccc(-c2ccc(C(=O)N3Cc4cccn4Cc4ccccc43)cc2)n1` [Example 27, [4-(1-Propyl-1H-pyrazol-3-yl)-phenyl]-(5H,11H-pyrrolo[2,1-c][1,4]-benzodiazepin-10-yl)-methanone]: the “Osmolality (% Increase)” value turned out to be 183% and the “Urine Volume (% decrease)” value amounted to 76%.

Regarding `CCCCn1ccc(-c2ccc(C(=O)N3Cc4cccn4Cc4ccccc43)cc2)n1` [Example 28, [4-(1-Butyl-1H-pyrazol-3-yl)-phenyl]-(5H,11H-pyrrolo[2,1-c][1,4]-benzodiazepin-10-yl)-methanone], the “Osmolality (% Increase)” value came out at 37% and the “Urine Volume (% decrease)” value is recorded as 75%.

In the case of `COCn1ccc(-c2ccc(C(=O)N3Cc4cccn4Cc4ccccc43)cc2)n1` [Example 29, [4-(1-methoxymethyl-1H-pyrazol-3-yl)-phenyl]-(5H,11H-pyrrolo[2,1-c][1,4]-benzodiazepin-10-yl)-methanone], the “Osmolality (% Increase)” value was found to be 305% and the “Urine Volume (% decrease)” value was determined as 66%.

In the case of `CCC(=O)n1ccc(-c2ccc(C(=O)N3Cc4cccn4Cc4ccccc43)cc2)n1` [Example 31, 1-{3-[4-(5H,11H-Pyrrolo[2,1-c][1,4]benzodiazepine-10-carbonyl)-phenyl]-pyrazol-1-yl}-propan-1-one], the “Osmolality (% Increase)” value was 298% and the “Urine Volume (% decrease)” value is given as 72%.

For the molecule `O=C(c1ccc(-c2ccn(C(=O)C3CC3)n2)cc1)N1Cc2cccn2Cc2ccccc21` [Example 32, [4-(1-Cyclopropanecarbonyl-1H-pyrazol-3-yl)-phenyl]-(5H,11H-pyrrolo[2,1-c][1,4]benzodiazepin-10-yl)-methanone], the “Osmolality (% Increase)” value turned out to be 373% and the “Urine Volume (% decrease)” value is recorded as 77%.

Turning to `CCCC(=O)n1ccc(-c2ccc(C(=O)N3Cc4cccn4Cc4ccccc43)cc2)n1` [Example 33, 1-{3-[4-(5H,11H-Pyrrolo[2,1-c][1,4]benzodiazepine-10-carbonyl)-phenyl]-pyrazol-1-yl}-butan-1-one], the “Osmolality (% Increase)” value was determined as 362% and the “Urine Volume (% decrease)” value was found to be 68%.

In the case of `Cc1ccc(F)cc1C(=O)n1ccc(-c2ccc(C(=O)N3Cc4cccn4Cc4ccccc43)cc2)n1` [Example 35, {4-[1-(5-Fluoro-2-methyl-benzoyl)-1H-pyrazol-3-yl]-phenyl}-(5H,11H-pyrrolo[2,1-c][1,4]benzodiazepin-10-yl)-methanone], the “Osmolality (% Increase)” value is given as 308% and the “Urine Volume (% decrease)” value was determined as 63%.

Take `O=C(c1ccc(-c2ccn(C(=O)c3ccc(F)cc3Cl)n2)cc1)N1Cc2cccn2Cc2ccccc21` [Example 37, {4-[1-(2-Chloro-4-fluoro-benzoyl)-1H-pyrazol-3-yl]-phenyl}-(5H,11H-pyrrolo[2,1-c][1,4]benzodiazepin-10-yl]methanone]: the “Osmolality (% Increase)” value is given as 370% and the “Urine Volume (% decrease)” value amounted to 71%.

Consider `O=C(c1ccc(-c2ccn(C(=O)Cc3ccc(Cl)cc3Cl)n2)cc1)N1Cc2cccn2Cc2ccccc21` [Example 39, 2-(2,4-Dichloro-phenyl)-1-{3-[4-(5H,11H-pyrrolo[2,1-c][1,4]benzodiazepine-10-carbonyl)-phenyl]-pyrazol-1-yl}-ethanone], for which the “Osmolality (% Increase)” value came out at 253% and the “Urine Volume (% decrease)” value amounted to 69%.

(Values after patent publication EP1000062B1, “TRICYCLIC VASOPRESSIN AGONISTS” (Wyeth, priority 1997, dated 1999).)
